Experiments:
[1] = target: T1, CYP2D6 (Homo sapiens, UniProt P10635); assay: Inhibitory effect on CYP coenzyme activity, human liver microsomes; type: in vitro ADME; conditions: 10 μM compound, human liver microsomes 0.25 mg/mL, substrate dextromethorphan, 15 minutes
T1 construct: human liver microsomes (0.25 mg/mL); from tissue; host or cells: human liver microsomes
Method in brief: (§1)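 Human liver microsomes (0.25 mg/mL) in 0.1 M phosphate pH 7.4 were preincubated 5 min at 37 °C with a substrate cocktail (50 μM phenacetin, 10 μM diclofenac, 100 μM S-mephenytoin, 5 μM dextromethorphan, 2.5 μM midazolam) and 10 μM compound, then run 15 min with NADPH-generating system. Metabolites quantified by LC-MS/MS (MRM); activity expressed as % of untreated control.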

[2] = target: T2, CYP2C9 (Homo sapiens, UniProt P11712); assay: as above; type: in vitro ADME; conditions: 10 μM compound, human liver microsomes 0.25 mg/mL, substrate diclofenac, 15 minutes
T2 construct: human liver microsomes (0.25 mg/mL); from tissue; host or cells: human liver microsomes
Method in brief: as §1

[3] = target: T3, CYP3A4 (Homo sapiens, UniProt P08684); assay: as above; type: in vitro ADME; conditions: 10 μM compound, human liver microsomes 0.25 mg/mL, substrate midazolam, 15 minutes
T3 construct: human liver microsomes (0.25 mg/mL); from tissue; host or cells: human liver microsomes
Method in brief: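 Cocktail inhibition: HLM 0.25 mg/mL, 0.1 M PO4 pH 7.4, 37 °C; 5 min preinc., then 15 min + NADPH regen.; cpd 10 μM; probes phenacetin/diclofenac/S-mephenytoin/dextromethorphan/midazolam at 50/10/100/5/2.5 μM; LC-MS/MS MRM; % remaining activity vs no-compound control.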

[4] = target: T4, CYP2C19 (Homo sapiens, UniProt P33261); assay: as above; type: in vitro ADME; conditions: 10 μM compound, human liver microsomes 0.25 mg/mL, substrate S-mephenytoin, 15 minutes
T4 construct: human liver microsomes (0.25 mg/mL); from tissue; host or cells: human liver microsomes
Method in brief: as §1

[5] = Liver microsome stability; type: in vitro ADME; conditions: 1 μM compound, 37° C., 30 minutes, NADPH; for Dog (%) amount of substrate remaining after the reaction: dog liver microsomes 0.25 mg/mL; for Human (%) amount of substrate remaining after the reaction: human liver microsomes 0.25 mg/mL; for Mouse (%) amount of substrate remaining after the reaction: mouse liver microsomes 0.25 mg/mL; for Rat (%) amount of substrate remaining after the reaction: rat liver microsomes 0.25 mg/mL
Procedure: The stability of liver microsomes due to the compounds prepared according to Examples 1 to 57 was confirmed. Specifically, four types of liver microsomes (human, dog, rat, and mouse, each 0.25 mg/mL), a 0.1 M phosphate buffer solution (pH 7.4), and each of the compounds at a concentration of 1 μM were mixed and pre-cultured at 37° C. for 5 minutes and further cultured at 37° C. for 30 minutes together with an NADPH generation system solution added thereto. Thereafter, the reaction was terminated by adding an acetonitrile solution containing an internal standard material (chloropropamide) and centrifuged for 5 minutes (14,000 rpm, 4° C.), and then a supernatant was injected into an LC-MS/MS system for analysis of substrate drugs to thereby evaluate metabolic stability due to 8 types of compounds.
The amount of the substrate remaining after the reaction was analyzed using the Shimadzu Nexera XR system and TSQ Vantage (Thermo). In an HPLC column, Kinetex XB-C18 (2.1 mm×100 mm, particle size of 2.6 μm; Phenomenex, USA) was used, and mobile phases were (A) distilled water containing 0.1% formic acid and (B) acetonitrile containing 0.1% formic acid. Analyst software (version 1.6.3) and Xcalibur (version 1.6.1) were used for data analysis.

[6] = target: T5, tau protein (Homo sapiens, UniProt P10636); assay: Tau-BiFC cell model, inhibition of Forskolin-induced tau protein aggregation; type: cell-based; conditions: Forskolin 30 μM, 48 hours; for Tau BiFC in cells Response (% @10 μM): 10 μM compound, Forskolin-only group = 100% tau protein-aggregated state; for IC50: tau-BiFC cells
T5 construct: BiFC fluorescent-protein fragments (type and halves not specified); expressed in transfected cells
Method in brief: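 Tau-BiFC cells co-treated 48 h with 30 μM forskolin and compounds (1, 3, 10 μM screen; 0.01–30 μM dose-response). BiFC fluorescence normalized to forskolin-only (100% aggregation) minus untreated gives aggregation inhibition and IC50; viability as Hoechst-stained nuclei count relative to forskolin-only.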

T2 sequence (P11712 whole entry): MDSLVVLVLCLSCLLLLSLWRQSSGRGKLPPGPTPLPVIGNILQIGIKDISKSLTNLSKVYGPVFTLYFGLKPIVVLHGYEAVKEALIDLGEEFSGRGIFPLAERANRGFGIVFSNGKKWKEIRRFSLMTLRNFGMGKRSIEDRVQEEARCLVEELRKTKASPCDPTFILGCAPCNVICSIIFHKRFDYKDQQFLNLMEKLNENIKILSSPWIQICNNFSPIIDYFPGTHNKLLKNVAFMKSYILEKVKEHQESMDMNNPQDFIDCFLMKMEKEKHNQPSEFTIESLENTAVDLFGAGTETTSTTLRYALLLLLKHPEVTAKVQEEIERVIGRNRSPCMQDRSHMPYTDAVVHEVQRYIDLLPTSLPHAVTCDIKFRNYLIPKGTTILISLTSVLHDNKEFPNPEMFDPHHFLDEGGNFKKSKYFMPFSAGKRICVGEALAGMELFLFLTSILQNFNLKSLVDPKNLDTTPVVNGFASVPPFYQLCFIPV
T4 sequence (P33261 whole entry): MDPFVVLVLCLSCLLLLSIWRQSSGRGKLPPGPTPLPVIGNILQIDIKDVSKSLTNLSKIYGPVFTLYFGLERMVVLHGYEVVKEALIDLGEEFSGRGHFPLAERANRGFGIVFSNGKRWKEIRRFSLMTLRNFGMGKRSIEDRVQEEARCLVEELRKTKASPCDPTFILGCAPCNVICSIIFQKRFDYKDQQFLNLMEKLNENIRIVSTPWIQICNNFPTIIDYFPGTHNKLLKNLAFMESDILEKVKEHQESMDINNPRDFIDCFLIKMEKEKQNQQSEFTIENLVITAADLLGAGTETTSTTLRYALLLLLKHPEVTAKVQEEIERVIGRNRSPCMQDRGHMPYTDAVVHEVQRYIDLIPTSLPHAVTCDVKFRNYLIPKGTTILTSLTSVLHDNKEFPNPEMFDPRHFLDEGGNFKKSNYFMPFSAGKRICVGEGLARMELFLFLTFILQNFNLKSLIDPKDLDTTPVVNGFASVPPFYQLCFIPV
T3 sequence (P08684 whole entry): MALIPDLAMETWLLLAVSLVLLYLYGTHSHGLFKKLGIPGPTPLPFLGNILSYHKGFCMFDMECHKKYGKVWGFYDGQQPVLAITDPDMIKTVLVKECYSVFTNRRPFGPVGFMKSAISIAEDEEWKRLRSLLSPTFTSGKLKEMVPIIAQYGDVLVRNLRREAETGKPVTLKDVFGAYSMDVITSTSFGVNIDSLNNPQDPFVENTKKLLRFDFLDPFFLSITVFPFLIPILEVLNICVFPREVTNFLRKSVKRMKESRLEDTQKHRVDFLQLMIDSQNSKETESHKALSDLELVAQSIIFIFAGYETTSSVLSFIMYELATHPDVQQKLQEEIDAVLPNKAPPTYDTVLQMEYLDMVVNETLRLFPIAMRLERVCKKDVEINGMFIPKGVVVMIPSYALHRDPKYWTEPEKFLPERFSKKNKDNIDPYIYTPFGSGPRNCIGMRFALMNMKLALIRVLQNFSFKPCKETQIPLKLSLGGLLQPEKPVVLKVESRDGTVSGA
T5 sequence (P10636 1-441 isoform P10636-8): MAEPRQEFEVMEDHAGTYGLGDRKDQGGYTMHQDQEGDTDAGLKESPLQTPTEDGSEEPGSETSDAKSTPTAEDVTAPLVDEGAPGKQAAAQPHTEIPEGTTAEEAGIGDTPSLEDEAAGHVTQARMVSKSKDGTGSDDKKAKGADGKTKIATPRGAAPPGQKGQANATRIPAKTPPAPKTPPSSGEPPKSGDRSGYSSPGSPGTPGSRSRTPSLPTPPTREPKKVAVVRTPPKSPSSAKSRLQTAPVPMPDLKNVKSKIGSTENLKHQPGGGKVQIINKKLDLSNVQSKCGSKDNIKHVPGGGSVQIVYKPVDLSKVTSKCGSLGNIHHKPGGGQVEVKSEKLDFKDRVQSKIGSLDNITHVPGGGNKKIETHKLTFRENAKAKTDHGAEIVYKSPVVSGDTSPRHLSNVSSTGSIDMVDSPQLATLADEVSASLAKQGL
T1 sequence (P10635 whole entry): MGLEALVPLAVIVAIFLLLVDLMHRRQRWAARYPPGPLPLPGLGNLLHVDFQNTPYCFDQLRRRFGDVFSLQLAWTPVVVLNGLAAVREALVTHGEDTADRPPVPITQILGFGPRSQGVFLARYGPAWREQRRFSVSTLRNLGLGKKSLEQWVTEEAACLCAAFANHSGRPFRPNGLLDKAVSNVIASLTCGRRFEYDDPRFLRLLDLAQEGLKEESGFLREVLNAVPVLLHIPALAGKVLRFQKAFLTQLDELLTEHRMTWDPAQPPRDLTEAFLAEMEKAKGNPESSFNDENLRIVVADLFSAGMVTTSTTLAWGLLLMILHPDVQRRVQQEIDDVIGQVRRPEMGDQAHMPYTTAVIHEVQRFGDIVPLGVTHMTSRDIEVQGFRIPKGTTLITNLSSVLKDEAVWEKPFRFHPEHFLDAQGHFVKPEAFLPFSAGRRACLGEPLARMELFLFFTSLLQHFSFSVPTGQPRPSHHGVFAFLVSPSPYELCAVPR

Compound	CYP2D6 coenzyme activity (%) with respect to control group not treated [1] [%]	CYP2C9 coenzyme activity (%) with respect to control group not treated [2] [%]	CYP3A4 coenzyme activity (%) with respect to control group not treated [3] [%]	CYP2C19 coenzyme activity (%) with respect to control group not treated [4] [%]	Dog (%) amount of substrate remaining after the reaction [5] [%]	Human (%) amount of substrate remaining after the reaction [5] [%]	Mouse (%) amount of substrate remaining after the reaction [5] [%]	Rat (%) amount of substrate remaining after the reaction [5] [%]	Tau BiFC in cells Response (% @10 μM) [6] [%]	IC50 [6] [nM]
Cn1c(=O)n(C)c2cc(NN=C(C#N)C#N)ccc21 [Compound 22, (1,3-dimethyl-2-oxo-2,3-dihydro-1H-benzo[d]imidazol-5-yl)carbonohydrazonoyl dicyanide]	>100	99	>100	>100	92.2	80.6	63.1	91.6	0	200
CC(C)n1c(=O)n(C(C)C)c2cc(NN=C(C#N)C#N)ccc21 [Compound 23, (1,3-diisopropyl-2-oxo-2,3-dihydro-1H-benzo[d]imidazol-5-yl)carbonohydrazonoyl dicyanide]	95.3	46.4	79.6	69.7	86.1	83.1	72.4	77.7	0	100
N#CC(C#N)=NNc1ccc2c(c1)n(C(F)F)c(=O)n2C(F)F [Compound 24, (1,3-bis(difluoromethyl)-2-oxo-2,3-dihydro-1H-benzo[d]imidazol-5-yl)carbonohydrazonoyl dicyanide]	82.5	40.6	78.1	73.9	88.1	88.2	84.1	86.8	0	200
CC(C)n1c(=O)oc2ccc(NN=C(C#N)C#N)cc21 [Compound 29, (3-isopropyl-2-oxo-2,3-dihydrobenzo[d]oxazol-5-yl)carbonohydrazonoyl dicyanide]	94.2	4.7	>100	91.3	–	>100	88.9	96.4	−31	70
COc1cc(NN=C(C#N)C#N)cc2c1n(C)c(=O)n2C [Compound 33, (7-methoxy-1,3-dimethyl-2-oxo-2,3-dihydro-1H-benzo[d]imidazol-5-yl)carbonohydrazonoyl dicyanide]	>100	69.9	97.6	>100	–	93.2	78.7	85.5	−43	5
CC(C)n1c(=O)n(C(C)C)c2ncc(NN=C(C#N)C#N)cc21 [Compound 34, (1,3-diisopropyl-2-oxo-2,3-dihydro-1H-imidazo[4,5-b]pyridin-6-yl)carbonohydrazonoyl dicyanide]	99.1	41.9	90.2	88.8	–	>100	86.6	57.5	−45	50
CCn1c(=O)n(C)c2ccc(NN=C(C#N)C#N)cc21 [Compound 35, (3-ethyl-1-methyl-2-oxo-2,3-dihydro-1H-benzo[d]imidazol-5-yl)carbonohydrazonoyl dicyanide]	>100	72.5	>100	100	–	98.7	87.1	86	−44	10
CC(C)n1c(=O)n(C)c2ccc(NN=C(C#N)C#N)cc21 [Compound 36, (3-isopropyl-1-methyl-2-oxo-2,3-dihydro-1H-benzo[d]imidazol-5-yl)carbonohydrazonoyl dicyanide]	>100	36.6	95.8	89.5	–	>100	89.4	86.4	−57	20
Cn1c(=O)n(C(F)F)c2cc(NN=C(C#N)C#N)ccc21 [Compound 37, (3-(difluoromethyl)-1-methyl-2-oxo-2,3-dihydro-1H-benzo[d]imidazol-5-yl)carbonohydrazonoyl dicyanide]	>100	29.2	96.7	90.7	–	84.9	75.7	58.5	−49	200
CCn1c(=O)n(C)c2cc(NN=C(C#N)C#N)ccc21 [Compound 38, (1-ethyl-3-methyl-2-oxo-2,3-dihydro-1H-benzo[d]imidazol-5-yl)carbonohydrazonoyl dicyanide]	>100	92.6	>100	>100	–	95	81.6	91.8	−31	30
CC(C)n1c(=O)n(C2CC2)c2ccc(NN=C(C#N)C#N)cc21 [Compound 42, (1-cyclopropyl-3-isopropyl-2-oxo-2,3-dihydro-1H-benzo[d]imidazol-5-yl)carbonohydrazonoyl dicyanide]	>100	59.6	93.5	>100	–	81.7	63.4	78.7	−52	80

From patent publication US12590066B2, “Fused-heterocyclyl-carbonohydrazonoyl dicyanide compounds and use thereof” (KOREA INSTITUTE OF SCIENCE AND TECHNOLOGY, priority 2020, dated 2026)
